The values below come from ChEMBL document CHEMBL1201862, “PubChem BioAssay data set” (2004).

Calls of active or inactive are those of the source. A value given as a limit tells only on which side of the number the result lay.

Assay [1] is described as follows: HEK293T cytotoxicity, dose response, cytotoxicity control for miR-122 modulator project, cell-based, inhibitor set, cherry-pick, set 2 (AID 720697). The assay is classed as functional.
The next assay relates to HeLa. Briefly: HeLa cell cytotoxicity, dose response, cytotoxicity control for MITF activator project, CellTiter-Glo luminescence, cherry-pick samples (AID 540259). The assay is classed as functional, cell-based. Conditions: Homo sapiens.
Assay [2] can be described thus: cytotoxicity in OVCAR8 ovarian cancer cells, dose response, PAX8 project, cell-based, plate reader, dry powder samples (AID 743197). The assay is classed as functional. Conditions: OVCAR-8.
The target in the next assay is Paired box protein Pax-8 (Homo sapiens, UniProt Q06710). Description: inhibitors of PAX8-driven TPO luciferase reporter, dose response, RMG-I cells, cherry-pick (AID 687027).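 Further: luciferase reporter driven by Pax8 target thyroperoxidase promoter measured by SteadyGlo luminescence.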 The assay is classed as functional, cell-based.
Paired box protein Pax-8, sequence (Q06710 whole entry): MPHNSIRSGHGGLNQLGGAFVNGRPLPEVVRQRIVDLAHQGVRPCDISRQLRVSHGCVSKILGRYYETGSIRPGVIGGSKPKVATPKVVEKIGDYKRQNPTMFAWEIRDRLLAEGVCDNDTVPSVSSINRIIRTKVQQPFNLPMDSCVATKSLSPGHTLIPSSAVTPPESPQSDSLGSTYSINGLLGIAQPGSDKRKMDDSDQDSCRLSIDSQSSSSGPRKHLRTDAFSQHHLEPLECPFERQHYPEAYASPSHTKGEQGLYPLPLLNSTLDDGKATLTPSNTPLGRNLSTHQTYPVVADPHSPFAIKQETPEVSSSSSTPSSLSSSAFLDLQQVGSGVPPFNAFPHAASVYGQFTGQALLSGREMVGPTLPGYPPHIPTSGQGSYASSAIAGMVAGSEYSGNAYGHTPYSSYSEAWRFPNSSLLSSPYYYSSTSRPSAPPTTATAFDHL
The target of assay [3] is T1, High affinity choline transporter 1 (Homo sapiens, UniProt Q9GZV3).
T1 sequence (Q9GZV3 whole entry): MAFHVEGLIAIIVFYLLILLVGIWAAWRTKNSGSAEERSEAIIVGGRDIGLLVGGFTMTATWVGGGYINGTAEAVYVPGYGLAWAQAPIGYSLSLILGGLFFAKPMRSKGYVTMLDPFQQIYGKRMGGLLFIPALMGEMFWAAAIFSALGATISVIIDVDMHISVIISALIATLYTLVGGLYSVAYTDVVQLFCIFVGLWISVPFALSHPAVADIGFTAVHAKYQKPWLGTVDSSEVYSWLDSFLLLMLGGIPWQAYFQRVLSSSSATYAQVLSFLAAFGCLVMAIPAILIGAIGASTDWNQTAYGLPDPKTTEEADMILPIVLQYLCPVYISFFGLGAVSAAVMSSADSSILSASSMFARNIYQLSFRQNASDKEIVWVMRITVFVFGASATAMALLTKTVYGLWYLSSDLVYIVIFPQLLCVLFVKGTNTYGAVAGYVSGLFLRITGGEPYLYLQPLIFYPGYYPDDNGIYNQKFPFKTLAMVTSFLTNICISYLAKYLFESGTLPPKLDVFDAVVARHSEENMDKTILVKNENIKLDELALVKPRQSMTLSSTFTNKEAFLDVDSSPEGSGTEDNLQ
Briefly: CHT inhibitors, dose response, cell-based, 5-point CRC, membrane potential dye (AID 504840). The assay is classed as functional.

Assay [4] concerns the target DNA dC->dU-editing enzyme APOBEC-3G (Homo sapiens, UniProt Q9HC16). Briefly: Dose Response confirmation of small molecule APOBEC3G DNA Deaminase Inhibitors via a fluorescence-based single-stranded DNA deaminase assay. [Related pubchem assays (depositor defined):AID493012, AID493028]. The assay is classed as functional.
The target in assay [5] is Induced myeloid leukemia cell differentiation protein Mcl-1 (Homo sapiens, UniProt Q07820). The assay is classed as functional.
Induced myeloid leukemia cell differentiation protein Mcl-1, sequence (Q07820 whole entry): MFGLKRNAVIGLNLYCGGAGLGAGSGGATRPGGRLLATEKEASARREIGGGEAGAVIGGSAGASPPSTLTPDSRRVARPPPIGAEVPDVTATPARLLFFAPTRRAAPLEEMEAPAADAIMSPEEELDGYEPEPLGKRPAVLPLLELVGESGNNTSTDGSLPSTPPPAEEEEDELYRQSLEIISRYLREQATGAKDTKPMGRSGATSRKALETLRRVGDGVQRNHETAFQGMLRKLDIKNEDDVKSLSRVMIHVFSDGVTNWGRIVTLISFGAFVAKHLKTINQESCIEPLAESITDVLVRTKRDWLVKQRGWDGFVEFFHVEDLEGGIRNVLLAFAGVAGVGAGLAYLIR
Assay [6] can be described thus: HEp-2 cell cytotoxicity, dose response, cytotoxicity control for RSV inhibitor project, HTS (AID 2410). The assay is classed as functional. Conditions: human respiratory syncytial virus.
The test system of the next assay is H4. Briefly: Luminescence Cell-Based Dose Response HTS to Identify Activators of 5'UTR Stem-Loop Driven Prion Protein mRNA Translation in H4 Neuroglioblastoma Cells. [Related pubchem assays: 1829 (Project Summary), 1814 (Primary HTS)]. The assay is classed as functional. Conditions: Homo sapiens.
Assay [7] in a line: Luminescence Cell-Based Dose Response HTS to Identify Activators of Luciferase Translation or Activity in H4 […] Cells. [Related pubchem assays: 1829 (Project Summary), 1814 (Primary HTS)]. The assay is classed as functional.
For a further assay, the system named is Vero. Description: cells. Conditions: Chlorocebus sabaeus. The assay is classed as functional.
Assay [8] deals with Streptococcus sp. 'group A'. Briefly: growth inhibition of control SK(-) GAS strain, dose response, counter-screen for streptokinase expression inhibitor project, luminescence, kanamycin, BacTiterGlo, confirmation (AID 1900). The assay is classed as functional, organism-based.
The next assay relates to Streptococcus. Description: Group A Streptococcus viability loss, dose response, counter-screen for streptokinase expression inhibitor project, luminescence, BacTiterGlo (AID 1915).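 Further: potency for reduction of bacterial viability or growth.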 The assay is classed as functional, organism-based.
A further assay relates to HEK293. Description: inhibitors of LMP1-driven NF-kB reporter, dose response, cell-based, HEK293, luciferase, cherry-pick (AID 588343). The assay is classed as functional. Conditions: Homo sapiens.
Assay [9] deals with T2, Polyadenylate-binding protein 1 (Homo sapiens, UniProt P11940). Briefly: PABP1 MLLE–PAM2 binding inhibitor potency, dose response, biochemical, fluorescence polarization, FITC-PAM2 peptide (AID 602259). The assay is classed as functional. Conditions: read-out: IC50_Mean.
T2 sequence (P11940 whole entry): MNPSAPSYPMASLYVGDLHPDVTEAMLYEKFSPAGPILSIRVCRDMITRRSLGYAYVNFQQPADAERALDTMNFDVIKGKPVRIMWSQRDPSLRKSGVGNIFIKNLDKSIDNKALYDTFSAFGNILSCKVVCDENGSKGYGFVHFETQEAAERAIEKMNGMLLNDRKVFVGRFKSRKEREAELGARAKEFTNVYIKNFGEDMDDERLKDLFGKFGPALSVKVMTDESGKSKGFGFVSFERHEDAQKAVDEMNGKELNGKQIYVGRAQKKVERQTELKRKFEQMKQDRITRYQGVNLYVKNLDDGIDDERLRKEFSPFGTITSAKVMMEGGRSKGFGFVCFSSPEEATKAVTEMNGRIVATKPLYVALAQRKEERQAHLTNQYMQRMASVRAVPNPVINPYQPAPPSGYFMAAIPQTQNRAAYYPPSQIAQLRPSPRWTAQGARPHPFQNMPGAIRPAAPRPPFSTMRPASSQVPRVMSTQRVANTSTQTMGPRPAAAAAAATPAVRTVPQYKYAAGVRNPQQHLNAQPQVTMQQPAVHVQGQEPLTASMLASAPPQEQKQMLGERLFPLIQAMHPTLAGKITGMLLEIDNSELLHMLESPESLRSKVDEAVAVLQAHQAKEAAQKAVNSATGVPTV
Assay [10] has as its target T2, Polyadenylate-binding protein 1. Description: PABP1 MLLE–PAM2 interaction inhibitors, dose response, miRNA deadenylation inhibitor project, biochemical, fluorescence polarization, Cy5-PAM2 peptide, secondary (AID 602260). Conditions: read-out: IC50_Mean. The assay is classed as functional.
The target of assay [11] is T3, Fatty acid synthase (Homo sapiens, UniProt P49327). Briefly: FAS thioesterase domain inhibitors, dose response, biochemical, kinetic fluorescence intensity (AID 624326).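 Further: rate of fluorescence rise from hydrolysis of a fluorogenic O-methyl fluorescein ester substrate.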 The assay is classed as functional.
T3 sequence (P49327 whole entry, the tested form may be a part): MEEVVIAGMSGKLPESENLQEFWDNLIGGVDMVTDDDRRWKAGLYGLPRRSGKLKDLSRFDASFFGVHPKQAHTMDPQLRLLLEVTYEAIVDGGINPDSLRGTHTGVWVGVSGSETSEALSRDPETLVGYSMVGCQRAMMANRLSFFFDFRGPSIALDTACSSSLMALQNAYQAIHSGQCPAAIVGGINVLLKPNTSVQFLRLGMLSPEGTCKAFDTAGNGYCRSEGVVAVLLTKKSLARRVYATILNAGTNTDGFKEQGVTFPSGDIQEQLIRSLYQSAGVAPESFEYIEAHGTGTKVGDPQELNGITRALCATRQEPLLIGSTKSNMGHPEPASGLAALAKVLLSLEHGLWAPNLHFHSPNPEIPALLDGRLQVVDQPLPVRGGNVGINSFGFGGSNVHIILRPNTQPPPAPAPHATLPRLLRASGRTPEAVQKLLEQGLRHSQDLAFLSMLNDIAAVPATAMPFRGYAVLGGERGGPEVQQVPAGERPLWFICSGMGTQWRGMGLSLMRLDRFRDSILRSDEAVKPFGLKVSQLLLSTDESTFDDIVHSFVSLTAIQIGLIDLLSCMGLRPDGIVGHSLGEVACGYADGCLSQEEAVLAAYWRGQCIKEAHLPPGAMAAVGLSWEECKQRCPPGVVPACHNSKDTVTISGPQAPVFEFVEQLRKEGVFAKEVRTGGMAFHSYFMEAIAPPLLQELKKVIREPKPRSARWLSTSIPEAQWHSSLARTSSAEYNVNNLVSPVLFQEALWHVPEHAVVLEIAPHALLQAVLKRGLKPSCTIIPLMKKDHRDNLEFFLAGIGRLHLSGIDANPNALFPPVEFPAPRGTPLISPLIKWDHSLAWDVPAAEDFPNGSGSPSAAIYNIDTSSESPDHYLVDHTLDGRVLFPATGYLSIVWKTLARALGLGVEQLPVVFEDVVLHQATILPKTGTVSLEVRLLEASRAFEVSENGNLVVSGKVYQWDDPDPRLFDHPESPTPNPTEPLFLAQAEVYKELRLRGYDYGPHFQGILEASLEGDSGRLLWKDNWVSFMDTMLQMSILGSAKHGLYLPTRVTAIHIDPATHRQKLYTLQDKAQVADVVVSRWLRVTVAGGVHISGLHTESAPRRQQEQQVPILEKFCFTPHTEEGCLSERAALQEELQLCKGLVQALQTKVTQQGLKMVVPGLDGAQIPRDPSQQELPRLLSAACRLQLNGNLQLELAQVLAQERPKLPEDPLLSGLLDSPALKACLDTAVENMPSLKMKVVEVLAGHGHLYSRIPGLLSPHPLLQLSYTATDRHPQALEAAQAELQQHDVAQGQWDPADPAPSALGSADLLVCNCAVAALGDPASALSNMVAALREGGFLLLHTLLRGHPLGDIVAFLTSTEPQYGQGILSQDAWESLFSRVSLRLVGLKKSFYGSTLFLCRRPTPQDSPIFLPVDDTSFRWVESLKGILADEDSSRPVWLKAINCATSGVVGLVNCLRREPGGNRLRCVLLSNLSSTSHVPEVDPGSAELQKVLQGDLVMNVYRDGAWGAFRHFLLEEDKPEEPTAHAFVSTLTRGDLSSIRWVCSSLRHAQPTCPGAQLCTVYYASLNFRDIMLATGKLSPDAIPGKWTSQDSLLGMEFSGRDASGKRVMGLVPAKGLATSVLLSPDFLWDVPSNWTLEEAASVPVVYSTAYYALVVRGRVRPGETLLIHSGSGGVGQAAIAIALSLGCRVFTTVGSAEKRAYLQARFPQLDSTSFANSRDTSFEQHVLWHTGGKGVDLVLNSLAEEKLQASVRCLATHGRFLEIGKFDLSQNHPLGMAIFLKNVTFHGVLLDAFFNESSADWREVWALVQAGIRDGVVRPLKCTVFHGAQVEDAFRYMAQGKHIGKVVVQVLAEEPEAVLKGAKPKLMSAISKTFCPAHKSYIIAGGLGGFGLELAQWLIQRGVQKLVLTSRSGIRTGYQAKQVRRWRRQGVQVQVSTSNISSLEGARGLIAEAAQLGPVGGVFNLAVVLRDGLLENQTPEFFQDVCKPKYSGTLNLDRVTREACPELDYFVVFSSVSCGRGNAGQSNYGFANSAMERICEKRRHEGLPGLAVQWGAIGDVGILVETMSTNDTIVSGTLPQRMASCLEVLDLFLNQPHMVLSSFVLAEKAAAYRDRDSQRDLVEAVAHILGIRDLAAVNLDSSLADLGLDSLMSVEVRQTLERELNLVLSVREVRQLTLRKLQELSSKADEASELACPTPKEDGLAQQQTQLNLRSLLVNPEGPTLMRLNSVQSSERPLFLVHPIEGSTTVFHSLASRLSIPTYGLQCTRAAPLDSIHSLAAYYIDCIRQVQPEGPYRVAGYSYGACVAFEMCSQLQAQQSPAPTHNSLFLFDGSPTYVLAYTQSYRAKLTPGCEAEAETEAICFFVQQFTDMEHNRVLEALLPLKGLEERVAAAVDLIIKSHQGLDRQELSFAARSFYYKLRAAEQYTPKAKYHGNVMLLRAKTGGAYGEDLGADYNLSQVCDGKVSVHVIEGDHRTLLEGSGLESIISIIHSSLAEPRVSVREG
For assay [12], the target named is T3, Fatty acid synthase. Description: FAS thioesterase domain inhibitors, dose response, biochemical, endpoint fluorescence intensity, uHTS hits (AID 624327).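 Further: fluorescence from hydrolysis of an O-methyl fluorescein acyl ester substrate by the enzyme.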 The assay is classed as functional.

DNA dC->dU-editing enzyme APOBEC-3G, sequence (Q9HC16 whole entry): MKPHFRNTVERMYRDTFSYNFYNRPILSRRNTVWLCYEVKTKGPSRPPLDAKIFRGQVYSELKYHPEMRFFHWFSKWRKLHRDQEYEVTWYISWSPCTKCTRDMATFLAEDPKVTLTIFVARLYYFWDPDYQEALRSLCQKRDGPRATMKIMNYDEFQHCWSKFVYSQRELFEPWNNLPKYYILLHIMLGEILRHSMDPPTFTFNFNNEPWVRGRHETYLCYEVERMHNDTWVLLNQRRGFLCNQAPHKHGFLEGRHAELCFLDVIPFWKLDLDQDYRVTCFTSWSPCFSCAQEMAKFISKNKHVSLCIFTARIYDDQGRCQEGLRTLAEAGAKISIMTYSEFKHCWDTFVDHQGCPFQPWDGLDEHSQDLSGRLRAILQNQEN

For `CCCNC(=O)Nc1ccc2c(c1)C(=O)N(C)[C@@H]1CC[C@@H](CC(=O)NCC3CCCCC3)O[C@H]1CO2`, in [1], the concentration at half-maximal activity (AC50) was 2.28 µM (active).

`Cn1c(SCc2ccccc2Cl)nc2ccccc21`: in the assay on HeLa, the AC50 was 75 µM (active).

As for `COc1ccc(-c2ccc3c(c2)[C@@H]2[C@@H](CCN2C(=O)C2CCCC2)[C@H](CO)N3C)cc1`, the AC50 in assay [2] was > 70 µM (inactive); at Paired box protein Pax-8, 14.2 µM (active).

`Cc1ccc(-c2cccc(CN3CCN(C(C)C)C(CCO)C3)c2)o1` (stereo not drawn): the IC50 in [3] is 7.85 µM (active).

Regarding `CN1c2ccc(-c3cccc(F)c3)cc2[C@@H]2[C@@H](CCN2C(=O)Cc2ccccc2)[C@@H]1CO`, the AC50 was > 70 µM (inactive) in [2] and 10.2 µM (active) on Paired box protein Pax-8.

`CCn1c(S)nnc1CCCCc1nnc(S)n1CC`: the IC50 in assay [4] was 25.8 µM (active).

Turning to `CCC(=O)N1[C@H](CN(C)C(C)=O)[C@H](c2ccc(-c3cccnc3)cc2)[C@@H]1CO`, the half-maximal activity concentration (AC50) in assay [1] was 0.561 µM (active).

For `COc1cc(SC)ccc1C(=O)N1CCN(c2ccccc2)CC1`, the IC50 in [5] is < 0.4 µM (not active).

On to `CCOC(=O)c1c(C)oc2c1c(C(c1ccncc1)N1CCOCC1)c(O)c1ccccc12` (stereo not drawn), for which, in assay [5], the IC50 was 1.16 µM (active).

Consider `O=C(N/N=C/C1CC=CCC1)c1cc(-c2cccnc2)nc2ccccc12` (stereo not drawn), for which, in assay [3], the IC50 was 15.1 µM (active).

`COc1ccccc1-c1cnn2c(NC3CCCC3)cc(C)nc12`: the 50% cytotoxic concentration (CC50) in assay [6] is 40 µM (active). The AC50 in the assay on HeLa is 117 µM (active). Besides, the EC50 with H4 was 16.2 µM (active); in assay [7] it was 0.139 µM (active).

As to `CC1=C(C(=O)OCC(C)C)C(c2ccsc2)NC(=O)N1` (stereo not drawn), the IC50 in [5] is 2.4 µM (not active).

As for `C=CCn1c(O)c(N=NC(S)=Nc2ccccc2F)c2ccccc21`, the CC50 in the assay with Vero was 18.2 µM (active). The EC50 in [8] is 0.628 µM (active); in the assay with Streptococcus, 1.08 µM (active). Also, in the assay on HEK293, the concentration at half-maximal activity (AC50) is 2.88 µM (active). Besides, the IC50 in [9] and in [10] was > 66 µM (inactive) throughout.

With `Cc1ccc(SCC2=NN(c3nc(C)cc(C)n3)C(=O)C2)cc1`, the IC50 in assay [3] was 10.5 µM (active).

Regarding `Cc1ccc(-n2nc3ccc(NC(=O)C(C)C)cc3n2)cc1`, in the assay on HeLa, the concentration at half-maximal activity (AC50) is 54.8 µM (active).

On to `CC1(C(=O)NS(=O)(=O)c2ccc(C#N)cc2)CCN1C(=O)Cc1ccc(Cl)cc1Cl` (stereo not drawn), for which the IC50 is 5.77 µM (active) on Fatty acid synthase [11] and 10.1 µM (active) on Fatty acid synthase [12].

`COc1ccc(NC(C)=O)cc1S(=O)(=O)Nc1ccccc1C(=O)NCCc1ccccc1`: in the assay with HeLa, the AC50 was 230 µM (active). Further, the EC50 with H4 is 50.7 µM (active); in assay [7], 0.519 µM (active).

As for `COc1cccc(CN(C)C(=O)c2ccc(COc3ccc(Cl)cc3)cc2)c1OC`, the AC50 in the assay on HeLa was 54.8 µM (active).

As for `COc1ccc(N2C(=O)CC(Sc3n[nH]c(-c4ccc(C)cc4)n3)C2=O)cc1` (stereo not drawn), the IC50 in [4] is 21.2 µM (active).

Regarding `Cc1nc(C(C)NC(=O)CCc2nnc(CCCc3ccccc3)o2)c(C)s1` (stereo not drawn), the half-maximal activity concentration (AC50) in the assay on HeLa is 314 µM (active).

Take `CC(C)OC(=O)Cn1cnc2ccc(Br)cc2c1=O`: the IC50 in assay [5] was 24.1 µM (not active).

`C[C@@H]1CN([C@@H](C)CO)C(=O)c2cc(NS(=O)(=O)c3ccc(F)cc3)ccc2O[C@@H]1CN(C)Cc1ccc(C(F)(F)F)cc1`: the concentration at half-maximal activity (AC50) was 49.5 µM (active) in assay [2] and 15.3 µM (active) at Paired box protein Pax-8.

As to `O=c1c2ccccc2nnn1CSc1nc2sc3c(c2c(=O)n1CC1CCCO1)CCC3` (stereo not drawn), the IC50 in assay [3] is 15.8 µM (active).

Regarding `O=C(O)CC(Sc1nnc(S)s1)C(=O)O` (stereo not drawn), in [4], the IC50 is 45.1 µM (active).
